Substitutions are numbered along the chain they refer to.
How the values were obtained:
ABCG2 [1] = molecular target: T1, ABCG2 (Homo sapiens, UniProt Q9UNQ0, R482G); assay: [3H]-mitoxantrone accumulation in transfected cells; type: cell-based
T1 sequence (Q9UNQ0 1-655 R482G): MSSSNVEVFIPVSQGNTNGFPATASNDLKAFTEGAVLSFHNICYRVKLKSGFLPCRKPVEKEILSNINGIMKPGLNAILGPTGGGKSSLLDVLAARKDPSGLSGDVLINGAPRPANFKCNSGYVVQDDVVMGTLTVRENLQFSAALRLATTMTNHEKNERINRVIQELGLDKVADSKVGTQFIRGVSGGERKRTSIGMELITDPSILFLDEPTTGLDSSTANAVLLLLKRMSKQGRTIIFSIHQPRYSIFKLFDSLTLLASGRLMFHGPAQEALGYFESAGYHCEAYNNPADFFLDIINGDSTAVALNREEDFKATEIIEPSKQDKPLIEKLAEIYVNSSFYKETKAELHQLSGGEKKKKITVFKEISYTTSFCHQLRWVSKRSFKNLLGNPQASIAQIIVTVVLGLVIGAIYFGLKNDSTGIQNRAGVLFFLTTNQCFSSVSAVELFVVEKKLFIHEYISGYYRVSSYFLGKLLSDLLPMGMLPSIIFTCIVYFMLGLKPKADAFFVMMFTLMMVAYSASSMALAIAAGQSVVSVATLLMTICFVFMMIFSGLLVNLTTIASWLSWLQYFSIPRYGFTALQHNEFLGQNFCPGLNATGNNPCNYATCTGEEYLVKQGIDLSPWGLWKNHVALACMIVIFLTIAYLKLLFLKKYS

ABCG2 [2] = molecular target: T2, ABCG2 (Homo sapiens, UniProt Q9UNQ0); assay: inhibition of […]-IAAP photoaffinity labeling in membranes; type: binding
T2 sequence (Q9UNQ0 1-655): T1 sequence (Q9UNQ0 1-655 R482G) with G482R

ABCG2 [3] = molecular target: T3, ABCG2 (Homo sapiens, UniProt Q9UNQ0, R482T); assay: [3H]-mitoxantrone accumulation in transfected cells; type: cell-based
T3 sequence (Q9UNQ0 1-655 R482T): T1 sequence (Q9UNQ0 1-655 R482G) with G482T

- IC50 (ABCG2 [2]): 3.7 µM
Structure (SMILES): C[C@@H]1COC(Nc2ccc3ncnc(Nc4ccc(OCc5nccs5)c(Cl)c4)c3c2)=N1 [ARRY-334543]
- [3H]-mitoxantrone accumulation in transfected cells (0.25 and 1.0 μM) (ABCG2 [1]): significantly increased intracellular levels of [^3H]-MX in the NCI-H460, NCI-H460/MX20, ABCG2-482-R2, ABCG2-482-G2, and ABCG2-482-T7 cells
- [3H]-mitoxantrone accumulation in transfected cells (0.25 and 1.0 μM) (ABCG2 [3]): significantly increased intracellular levels of [^3H]-MX in the NCI-H460, NCI-H460/MX20, ABCG2-482-R2, ABCG2-482-G2, and ABCG2-482-T7 cells

— publication PMC4086246 (Journal of cellular biochemistry, 2014)
